Experimental data as given in ChEMBL document CHEMBL1201862, “PubChem BioAssay data set” (2004).
The source made the active and inactive calls. For most assays here, no stated cut-off is given here; in the data, actives have a measured EC50 and inactives only a lower limit.

Tests used:
[1] = target: Intestinal-type alkaline phosphatase (Homo sapiens, UniProt P09923); experiment: inhibition of human intestinal alkaline phosphatase – biochemical, dose response (AID 488876); format: functional
[2] = target: T1, Alkaline phosphatase, tissue-nonspecific isozyme (Homo sapiens, UniProt P05186); experiment: TNAP enzyme inhibition by screening hits, dose response, selectivity assay for mouse IAP inhibitor project, biochemical, human TNAP, uHTS hits (AID 488906); format: functional
T1 sequence (P05186 whole entry): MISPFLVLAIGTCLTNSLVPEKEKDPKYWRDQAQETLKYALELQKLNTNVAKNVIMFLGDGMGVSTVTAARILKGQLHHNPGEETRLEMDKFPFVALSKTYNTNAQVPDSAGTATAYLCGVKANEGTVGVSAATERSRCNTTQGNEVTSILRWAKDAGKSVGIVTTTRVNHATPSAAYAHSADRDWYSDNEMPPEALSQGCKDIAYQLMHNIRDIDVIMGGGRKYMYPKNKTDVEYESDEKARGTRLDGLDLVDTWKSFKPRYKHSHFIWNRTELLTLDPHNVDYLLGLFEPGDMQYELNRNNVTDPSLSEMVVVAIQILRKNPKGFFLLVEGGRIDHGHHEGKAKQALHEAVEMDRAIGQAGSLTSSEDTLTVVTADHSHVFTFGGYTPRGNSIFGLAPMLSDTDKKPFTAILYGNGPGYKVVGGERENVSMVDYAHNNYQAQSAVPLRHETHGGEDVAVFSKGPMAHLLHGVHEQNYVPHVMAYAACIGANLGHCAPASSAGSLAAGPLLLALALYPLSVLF

[3] = target: Intestinal-type alkaline phosphatase (Mus musculus, UniProt P24822); experiment: PubChem AID 488785; format: functional
[4] = cells; format: functional, cell-based
[5] = inhibitors of SNCA 5'UTR-driven translation, confirmation, luminescence, H4 neuroglioblastoma cells, dose confirmation (AID 2454); format: functional, cell-based;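 further: H4 neuroglioblastoma cells carrying an alpha-synuclein 5'UTR luciferase reporter; potency for inhibition of the luciferase signal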
[6] = target: T2, Protein RecA (Mycobacterium tuberculosis, UniProt P9WHJ3); experiment: Fluorescence Cell-Free Homogeneous Dose Retest to Identify Inhibitors of RecA-Intein Splicing Activity. [Related pubchem assays (depositor defined):AID2097, AID2223, AID489010, AID492950]; format: functional
T2 sequence (P9WHJ3 whole entry): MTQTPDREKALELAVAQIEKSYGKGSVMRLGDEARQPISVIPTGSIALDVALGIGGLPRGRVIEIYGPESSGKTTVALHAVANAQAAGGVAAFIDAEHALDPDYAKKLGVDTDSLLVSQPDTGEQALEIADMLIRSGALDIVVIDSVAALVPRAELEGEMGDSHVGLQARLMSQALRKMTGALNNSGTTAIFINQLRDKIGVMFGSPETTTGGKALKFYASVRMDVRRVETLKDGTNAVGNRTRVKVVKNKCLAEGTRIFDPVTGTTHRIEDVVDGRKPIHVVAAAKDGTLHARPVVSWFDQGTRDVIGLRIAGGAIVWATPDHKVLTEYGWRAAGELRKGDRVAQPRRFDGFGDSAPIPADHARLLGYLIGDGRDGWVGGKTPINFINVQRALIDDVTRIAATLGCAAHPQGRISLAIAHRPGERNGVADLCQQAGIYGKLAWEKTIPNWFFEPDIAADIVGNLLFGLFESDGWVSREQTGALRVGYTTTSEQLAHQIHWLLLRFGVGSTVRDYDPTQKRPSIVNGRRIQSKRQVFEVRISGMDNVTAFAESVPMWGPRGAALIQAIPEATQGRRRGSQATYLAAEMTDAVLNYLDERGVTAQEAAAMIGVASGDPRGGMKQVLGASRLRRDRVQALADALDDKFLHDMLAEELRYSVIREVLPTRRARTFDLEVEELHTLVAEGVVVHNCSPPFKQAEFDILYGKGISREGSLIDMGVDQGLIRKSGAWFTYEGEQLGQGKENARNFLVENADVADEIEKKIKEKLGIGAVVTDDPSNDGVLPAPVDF

[7] = Luminescence Cell-Based Dose Response HTS to Identify Inhibitors of 5'UTR Stem-Loop Driven Prion Protein mRNA Translation in H4 Neuroglioblastoma Cells. [Related pubchem assays: 1827 (Project Summary), 1813 (Primary HTS)]; format: functional
[8] = tested on: Streptococcus sp. 'group A'; experiment: growth inhibition of control SK(-) GAS strain, dose response, counter-screen for streptokinase expression inhibitor project, luminescence, kanamycin, BacTiterGlo, confirmation (AID 1900); format: functional, organism-based
[9] = inhibitors of firefly luciferase expression or activity, dose response, H4 neuroglioma cells, luminescence (AID 1990); format: functional, cell-based
[10] = target: Exodeoxyribonuclease V (Escherichia coli (strain K12), UniProt P04993+P07648+P08394); experiment: E. coli RecBCD inhibitors, dose response, counter-screen for AddAB inhibitor project, absorbance, V66 E. coli, mutant T4 phage (AID 492957); format: functional, cell-based, Escherichia coli str. K-12 substr. MG1655
[11] = luciferase reporter signal reduction – luminescence, H4-C neuroglioblastoma cells, dose response (AID 2458); format: functional, cell-based;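 further: H4 neuroglioblastoma cells stably carrying a luciferase reporter gene fusion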
[12] = cytotoxicity in HEK-293T cells, dose response, cytotoxicity control for TCR NF-kB inhibitor project, luminescence, T-cell screen hits (AID 489026); format: functional, cell-based;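 further: cells exposed to compound about 14 hours before the viability readout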
[13] = tested on: BJ; experiment: cytotoxicity toward BJ-TERT fibroblasts, dose response, cell-based, RAS-independent, luminescence (AID 1933); format: functional; settings: Homo sapiens
[14] = tested on: BJ; experiment: cytotoxicity toward BJ-TERT-LT-ST fibroblasts, dose response, cell-based, RAS-independent, luminescence (AID 1935); format: functional; settings: Homo sapiens;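 further: BJ fibroblasts immortalized with TERT plus LT and ST oncogenes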
[15] = tested on: Streptococcus; experiment: Group A Streptococcus viability loss, dose response, counter-screen for streptokinase expression inhibitor project, luminescence, BacTiterGlo (AID 1915); format: functional, organism-based;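 further: potency for reduction of bacterial viability or growth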
[16] = cytotoxicity toward DRD oncogenic fibroblasts, dose response, cell-based, non-viral oncogenic, luminescence (AID 1934); format: functional; settings: Homo sapiens
[17] = tested on: BJ; experiment: cells; format: functional, cell-based, Homo sapiens; settings: Homo sapiens, BJ
[18] = target: T3, Replicative DNA helicase DnaB (Mycobacterium tuberculosis, UniProt P9WMR3); experiment: DnaB intein splicing inhibitors, dose response, biochemical, cell-free fluorescence (AID 449749); format: functional
T3 sequence (P9WMR3 whole entry): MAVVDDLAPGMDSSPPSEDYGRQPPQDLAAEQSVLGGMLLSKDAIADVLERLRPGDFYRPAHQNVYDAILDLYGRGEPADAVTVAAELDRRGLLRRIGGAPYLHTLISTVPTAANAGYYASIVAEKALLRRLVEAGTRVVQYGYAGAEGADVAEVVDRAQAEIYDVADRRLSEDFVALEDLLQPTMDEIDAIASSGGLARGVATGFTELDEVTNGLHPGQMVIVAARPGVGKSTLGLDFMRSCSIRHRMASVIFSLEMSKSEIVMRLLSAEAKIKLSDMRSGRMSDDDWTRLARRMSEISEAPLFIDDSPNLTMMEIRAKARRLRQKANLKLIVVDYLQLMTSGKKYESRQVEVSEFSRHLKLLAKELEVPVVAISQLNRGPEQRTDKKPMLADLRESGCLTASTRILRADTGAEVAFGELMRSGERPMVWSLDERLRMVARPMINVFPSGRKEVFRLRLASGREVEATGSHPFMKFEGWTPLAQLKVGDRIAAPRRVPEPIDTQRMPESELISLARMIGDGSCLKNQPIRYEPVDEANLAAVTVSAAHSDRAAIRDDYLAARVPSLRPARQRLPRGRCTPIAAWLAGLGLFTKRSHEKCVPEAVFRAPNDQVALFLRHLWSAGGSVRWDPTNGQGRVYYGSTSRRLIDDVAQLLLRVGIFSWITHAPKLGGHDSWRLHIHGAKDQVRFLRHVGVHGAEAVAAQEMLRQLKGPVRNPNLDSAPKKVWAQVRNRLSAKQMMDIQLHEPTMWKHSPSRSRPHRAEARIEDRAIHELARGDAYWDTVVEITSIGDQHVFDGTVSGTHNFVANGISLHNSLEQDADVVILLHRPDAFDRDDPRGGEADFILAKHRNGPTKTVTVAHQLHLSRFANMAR

[19] = target: T4, Short transient receptor potential channel 4 (Mus musculus, UniProt Q9QUQ5); experiment: mouse TRPC4 channel activators, dose response, cell-based, HEK293 TRPC4/mu-opioid, Fluo-4 calcium (AID 434937); format: functional
T4 sequence (Q9QUQ5 whole entry): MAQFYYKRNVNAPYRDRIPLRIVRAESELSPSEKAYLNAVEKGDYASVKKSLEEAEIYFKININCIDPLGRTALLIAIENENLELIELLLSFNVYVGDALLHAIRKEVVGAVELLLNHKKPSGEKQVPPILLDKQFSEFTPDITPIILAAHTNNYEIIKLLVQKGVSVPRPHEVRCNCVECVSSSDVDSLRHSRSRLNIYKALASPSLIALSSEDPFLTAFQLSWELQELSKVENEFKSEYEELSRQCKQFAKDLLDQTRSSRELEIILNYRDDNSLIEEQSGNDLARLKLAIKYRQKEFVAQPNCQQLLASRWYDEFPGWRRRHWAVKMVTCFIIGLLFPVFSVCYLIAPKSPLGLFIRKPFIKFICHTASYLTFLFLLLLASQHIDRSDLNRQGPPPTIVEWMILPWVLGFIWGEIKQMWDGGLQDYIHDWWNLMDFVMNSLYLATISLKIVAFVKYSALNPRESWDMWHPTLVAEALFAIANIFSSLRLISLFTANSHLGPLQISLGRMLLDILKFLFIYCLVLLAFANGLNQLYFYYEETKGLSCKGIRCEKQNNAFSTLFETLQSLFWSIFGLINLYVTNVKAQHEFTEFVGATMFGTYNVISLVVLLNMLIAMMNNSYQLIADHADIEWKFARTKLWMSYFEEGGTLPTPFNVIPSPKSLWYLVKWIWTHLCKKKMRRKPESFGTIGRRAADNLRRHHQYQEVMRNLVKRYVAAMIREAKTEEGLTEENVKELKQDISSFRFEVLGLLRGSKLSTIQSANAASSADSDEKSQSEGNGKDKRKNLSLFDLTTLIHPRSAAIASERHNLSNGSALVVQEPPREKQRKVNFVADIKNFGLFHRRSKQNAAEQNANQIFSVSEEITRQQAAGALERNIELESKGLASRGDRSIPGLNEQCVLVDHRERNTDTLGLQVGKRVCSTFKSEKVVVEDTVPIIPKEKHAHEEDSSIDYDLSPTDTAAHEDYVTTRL

[20] = inhibitors of SNCA 5'UTR-driven reporter translation, confirmation, H4 neuroglioma cells, luminescence (AID 1988); format: functional, cell-based
[21] = Counterscreen for AddAB inhibitors: absorbance-based bacterial cell-based high throughput dose response assay for inhibitors of bacterial viability. [Related pubchem assays (depositor defined):AID435030, AID449728, AID449731, AID488942, AID488955, AID488956]; format: functional
[22] = target: T5, Tyrosine-protein phosphatase non-receptor type 22 (Homo sapiens, UniProt Q9Y2R2); format: functional
[23] = target: Prothrombin (Homo sapiens, UniProt P00734); experiment: Thrombin 1536 HTS Dose Response Confirmation. [Related pubchem assays: 1046 (Thrombin 1536 HTS; hits were confirmed in this assay)]; format: functional
[24] = target: T5, Tyrosine-protein phosphatase non-receptor type 22; format: functional; remark: listed apart in the source
[25] = target: Tyrosine-protein phosphatase non-receptor type 7 (Homo sapiens, UniProt P35236); format: functional
[26] = target: G-protein coupled receptor 35 (Homo sapiens, UniProt Q9HC97); experiment: GPR35 antagonists blocking zaprinast-driven arrestin recruitment, primary screen, imaging, U2OS, beta-arrestin-GFP, zaprinast agonist (AID 2058); format: functional;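 further: antagonist potency meaning inhibition of agonist-induced arrestin redistribution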
[27] = target: G-protein coupled receptor 55 (Homo sapiens, UniProt Q9Y2T6); experiment: GPR55 antagonists, SAR follow-up, counter-screen for GPR35 antagonist project, imaging, image-based (AID 2397); format: functional
[28] = C. albicans growth with fluconazole, confirmation, fluorescence, retest (AID 2467); format: functional, cell-based
[29] = inhibitors of intracellular T. cruzi replication, confirmation, NIH3T3 host cells, beta-gal luminescence (AID 2044); format: functional, cell-based;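 further: intracellular parasites grown in NIH/3T3 mouse fibroblasts as host cells; luminescent beta-galactosidase reporter signal from transgenic T. cruzi replicating inside host cells; inhibitors lower the luminescence signal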
[30] = cytotoxicity toward NIH3T3 fibroblasts, dose response, counter-screen, cell-based, ATP luminescence, mouse fibroblasts (AID 2010); format: functional;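 further: cells exposed to compound for about 90 hours before reading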
[31] = NIH-3T3 fibroblast cytotoxicity, dose response, cytotoxicity control, cell-based, fluorescence, Alamar Blue, secondary assay (AID 2327); format: functional;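 further: NIH-3T3 mouse fibroblasts cultured with fluconazole at 8 µg/mL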

T5 sequence (Q9Y2R2 whole entry): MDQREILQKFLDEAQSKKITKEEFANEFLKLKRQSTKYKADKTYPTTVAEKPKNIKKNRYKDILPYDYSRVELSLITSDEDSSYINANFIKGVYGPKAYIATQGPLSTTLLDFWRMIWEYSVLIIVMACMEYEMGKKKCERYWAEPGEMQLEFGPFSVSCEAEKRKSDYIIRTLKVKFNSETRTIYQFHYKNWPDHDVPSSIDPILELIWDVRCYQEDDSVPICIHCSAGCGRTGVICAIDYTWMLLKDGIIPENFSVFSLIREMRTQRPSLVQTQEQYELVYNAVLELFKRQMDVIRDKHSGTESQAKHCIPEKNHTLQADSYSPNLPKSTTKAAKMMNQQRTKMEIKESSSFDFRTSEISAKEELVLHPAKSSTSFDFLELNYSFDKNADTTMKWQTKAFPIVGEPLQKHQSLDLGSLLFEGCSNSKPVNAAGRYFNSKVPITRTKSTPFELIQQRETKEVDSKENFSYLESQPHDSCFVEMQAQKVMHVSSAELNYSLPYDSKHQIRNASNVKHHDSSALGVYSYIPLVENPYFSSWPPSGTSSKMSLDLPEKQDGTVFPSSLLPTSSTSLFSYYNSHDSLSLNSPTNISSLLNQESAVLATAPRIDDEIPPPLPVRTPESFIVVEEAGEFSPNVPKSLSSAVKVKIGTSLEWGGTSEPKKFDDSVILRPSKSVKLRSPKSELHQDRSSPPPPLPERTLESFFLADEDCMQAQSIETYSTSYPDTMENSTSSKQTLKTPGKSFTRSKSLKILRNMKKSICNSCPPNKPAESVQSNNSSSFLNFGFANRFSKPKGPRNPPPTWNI
Exodeoxyribonuclease V, sequence (P04993 whole entry, the tested form may be a part): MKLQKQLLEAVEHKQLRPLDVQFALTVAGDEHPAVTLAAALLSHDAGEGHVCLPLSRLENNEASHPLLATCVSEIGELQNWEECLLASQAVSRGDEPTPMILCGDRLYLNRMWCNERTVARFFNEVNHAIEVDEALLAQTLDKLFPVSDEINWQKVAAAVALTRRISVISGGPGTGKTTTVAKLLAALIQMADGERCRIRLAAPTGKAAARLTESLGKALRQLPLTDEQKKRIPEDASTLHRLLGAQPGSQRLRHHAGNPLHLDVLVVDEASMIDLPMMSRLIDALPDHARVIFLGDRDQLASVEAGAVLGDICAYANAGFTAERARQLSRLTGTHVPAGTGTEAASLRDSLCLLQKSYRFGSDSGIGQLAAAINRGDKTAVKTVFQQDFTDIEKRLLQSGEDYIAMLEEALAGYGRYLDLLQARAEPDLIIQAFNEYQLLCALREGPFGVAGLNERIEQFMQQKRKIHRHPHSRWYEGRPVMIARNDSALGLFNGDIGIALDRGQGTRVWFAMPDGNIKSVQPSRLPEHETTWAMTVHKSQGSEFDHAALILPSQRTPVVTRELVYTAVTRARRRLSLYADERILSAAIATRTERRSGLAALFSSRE
Exodeoxyribonuclease V, sequence (P07648 whole entry, the tested form may be a part): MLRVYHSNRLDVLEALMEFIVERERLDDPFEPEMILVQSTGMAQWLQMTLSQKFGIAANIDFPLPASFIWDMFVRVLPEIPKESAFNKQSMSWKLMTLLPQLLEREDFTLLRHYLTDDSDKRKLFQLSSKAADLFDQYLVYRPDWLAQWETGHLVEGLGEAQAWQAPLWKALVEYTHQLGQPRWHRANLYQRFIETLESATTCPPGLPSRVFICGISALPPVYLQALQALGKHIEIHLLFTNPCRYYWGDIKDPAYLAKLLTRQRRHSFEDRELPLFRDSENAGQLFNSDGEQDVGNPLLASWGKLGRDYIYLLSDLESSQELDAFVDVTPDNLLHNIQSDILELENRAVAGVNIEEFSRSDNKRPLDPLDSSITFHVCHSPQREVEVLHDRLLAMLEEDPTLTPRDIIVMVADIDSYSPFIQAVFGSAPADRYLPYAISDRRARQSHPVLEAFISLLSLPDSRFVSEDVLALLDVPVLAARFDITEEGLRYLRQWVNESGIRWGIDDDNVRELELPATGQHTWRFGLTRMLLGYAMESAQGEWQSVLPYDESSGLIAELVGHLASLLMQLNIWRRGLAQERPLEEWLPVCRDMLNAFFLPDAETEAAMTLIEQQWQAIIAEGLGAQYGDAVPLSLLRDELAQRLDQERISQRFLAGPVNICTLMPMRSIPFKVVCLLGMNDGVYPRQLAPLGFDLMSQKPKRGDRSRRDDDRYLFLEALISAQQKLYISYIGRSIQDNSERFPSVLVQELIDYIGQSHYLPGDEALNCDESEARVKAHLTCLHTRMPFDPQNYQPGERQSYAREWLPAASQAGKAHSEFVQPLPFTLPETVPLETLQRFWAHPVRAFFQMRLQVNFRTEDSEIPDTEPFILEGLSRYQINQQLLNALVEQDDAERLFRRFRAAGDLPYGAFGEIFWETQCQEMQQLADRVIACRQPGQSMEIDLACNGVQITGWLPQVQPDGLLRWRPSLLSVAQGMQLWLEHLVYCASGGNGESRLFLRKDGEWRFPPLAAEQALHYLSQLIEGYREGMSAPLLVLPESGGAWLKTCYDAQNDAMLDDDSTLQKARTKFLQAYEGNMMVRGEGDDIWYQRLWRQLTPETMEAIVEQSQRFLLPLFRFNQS
Exodeoxyribonuclease V, sequence (P08394 whole entry, the tested form may be a part): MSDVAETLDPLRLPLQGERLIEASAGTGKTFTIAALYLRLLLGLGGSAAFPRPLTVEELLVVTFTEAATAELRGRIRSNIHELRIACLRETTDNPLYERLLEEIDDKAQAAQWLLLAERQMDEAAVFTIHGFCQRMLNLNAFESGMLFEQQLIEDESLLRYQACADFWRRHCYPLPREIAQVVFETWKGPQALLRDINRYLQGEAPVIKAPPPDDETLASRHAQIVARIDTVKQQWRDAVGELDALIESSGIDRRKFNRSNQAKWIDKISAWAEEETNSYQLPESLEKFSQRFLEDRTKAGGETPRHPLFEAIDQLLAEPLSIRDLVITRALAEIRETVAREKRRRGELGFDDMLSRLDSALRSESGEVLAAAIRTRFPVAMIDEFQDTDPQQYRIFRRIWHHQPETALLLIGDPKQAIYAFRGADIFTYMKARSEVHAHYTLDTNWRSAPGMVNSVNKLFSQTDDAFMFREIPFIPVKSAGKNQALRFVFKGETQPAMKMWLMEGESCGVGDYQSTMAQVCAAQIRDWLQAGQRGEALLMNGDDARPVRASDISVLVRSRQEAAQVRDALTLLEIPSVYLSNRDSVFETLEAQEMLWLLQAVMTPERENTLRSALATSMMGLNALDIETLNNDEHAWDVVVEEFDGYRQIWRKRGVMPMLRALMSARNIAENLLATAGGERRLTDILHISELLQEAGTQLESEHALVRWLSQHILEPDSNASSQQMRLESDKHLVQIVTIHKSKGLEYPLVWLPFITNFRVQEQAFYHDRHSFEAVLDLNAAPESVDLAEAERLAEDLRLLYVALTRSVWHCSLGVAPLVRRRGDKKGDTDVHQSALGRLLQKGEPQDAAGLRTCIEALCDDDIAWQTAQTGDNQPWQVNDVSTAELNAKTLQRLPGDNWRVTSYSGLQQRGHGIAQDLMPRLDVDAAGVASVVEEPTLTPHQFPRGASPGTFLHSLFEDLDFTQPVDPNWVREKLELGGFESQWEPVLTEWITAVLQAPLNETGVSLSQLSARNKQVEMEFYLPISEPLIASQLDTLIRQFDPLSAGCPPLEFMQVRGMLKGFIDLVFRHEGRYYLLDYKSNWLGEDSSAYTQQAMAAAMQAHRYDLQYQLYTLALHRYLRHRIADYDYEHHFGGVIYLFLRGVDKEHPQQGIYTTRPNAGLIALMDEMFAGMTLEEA
G-protein coupled receptor 55, sequence (Q9Y2T6 whole entry): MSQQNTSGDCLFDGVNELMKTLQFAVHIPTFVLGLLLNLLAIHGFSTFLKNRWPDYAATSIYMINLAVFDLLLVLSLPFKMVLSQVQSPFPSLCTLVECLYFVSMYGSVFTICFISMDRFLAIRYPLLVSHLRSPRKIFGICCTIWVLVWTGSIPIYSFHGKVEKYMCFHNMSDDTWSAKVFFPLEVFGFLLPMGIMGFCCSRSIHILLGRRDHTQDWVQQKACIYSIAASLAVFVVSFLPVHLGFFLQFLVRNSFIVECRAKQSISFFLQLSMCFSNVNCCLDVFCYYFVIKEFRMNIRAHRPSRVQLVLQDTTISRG
Tyrosine-protein phosphatase non-receptor type 7, sequence (P35236 whole entry): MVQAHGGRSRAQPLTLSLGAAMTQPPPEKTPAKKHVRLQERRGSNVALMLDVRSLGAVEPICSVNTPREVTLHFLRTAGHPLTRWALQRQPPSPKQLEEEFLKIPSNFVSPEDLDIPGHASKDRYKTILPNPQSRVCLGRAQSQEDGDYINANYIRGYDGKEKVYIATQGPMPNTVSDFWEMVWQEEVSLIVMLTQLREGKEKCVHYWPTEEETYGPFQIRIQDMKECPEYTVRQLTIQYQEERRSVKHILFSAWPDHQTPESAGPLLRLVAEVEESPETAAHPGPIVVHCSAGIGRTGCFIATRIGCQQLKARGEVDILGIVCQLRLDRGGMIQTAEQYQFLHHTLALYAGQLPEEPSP
Intestinal-type alkaline phosphatase (Homo sapiens, UniProt P09923), sequence (P09923 whole entry): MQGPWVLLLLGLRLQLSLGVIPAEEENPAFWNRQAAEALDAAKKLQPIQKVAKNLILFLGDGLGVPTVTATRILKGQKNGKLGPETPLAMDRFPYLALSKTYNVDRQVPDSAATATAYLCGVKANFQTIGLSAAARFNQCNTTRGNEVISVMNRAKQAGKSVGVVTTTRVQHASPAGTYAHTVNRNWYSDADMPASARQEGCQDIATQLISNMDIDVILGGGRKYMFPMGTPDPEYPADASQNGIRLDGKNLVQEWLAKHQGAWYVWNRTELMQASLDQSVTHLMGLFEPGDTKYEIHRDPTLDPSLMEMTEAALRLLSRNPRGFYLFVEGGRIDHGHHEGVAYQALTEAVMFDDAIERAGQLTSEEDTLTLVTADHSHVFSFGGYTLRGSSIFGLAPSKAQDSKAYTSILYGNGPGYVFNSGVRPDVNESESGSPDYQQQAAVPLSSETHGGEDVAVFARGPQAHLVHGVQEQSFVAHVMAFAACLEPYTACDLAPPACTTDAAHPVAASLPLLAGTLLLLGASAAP

## S=C(NCc1ccccc1)NC1CCSc2ccccc21 (stereo not drawn)
[1]
  IC50: 60.7 µM (active)
[2]
  IC50: 45.5 µM (active)
[3]
  IC50: 3.3 µM (active)

## Cc1ccc(C[n+]2c(-c3ccc(C)cc3)cc(-c3ccc(C)cc3)cc2-c2ccc(C)cc2)cc1.[O-][Cl+3]([O-])([O-])[O-]
[4]
  EC50: 3.46 µM (active)
[5]
  EC50: 0.793 µM (active)
[6]
  EC50: 8.2 µM (active)
[7]
  EC50: 4.41 µM (active)
[8]
  EC50: 3.71 µM (active)
[9]
  EC50: < 0.1 µM (active)
[10]
  IC50: 20.1 µM (inactive)
[11]
  EC50: 1.62 µM (active)
[12]
  IC50: 25.9 µM (inactive)
[13]
  EC50: 1.07 µM (inconclusive)
[14]
  EC50: 2.7 µM (inconclusive)
[15]
  EC50: 7.91 µM (active)
[16]
  EC50: 1.31 µM (active)
[17]
  EC50: 1.23 µM (inconclusive)
[18]
  AC50: 3.61 µM (active)
[19]
  EC50: 5.31 µM (active)
[20]
  EC50: < 0.1 µM (active)
[21]
  IC50: 18.5 µM (inactive)

## CSc1nc(-c2ccc(Cl)cc2)nn1C(=O)c1ccco1
[6]
  EC50: > 380 µM (inactive)
[22]
  IC50: > 79.4 µM (inactive)
[23]
  IC50: 2.31 µM (active)
[24]
  IC50: > 79.4 µM (inactive)
[18]
  AC50: 0.387 µM (active)
[25]
  IC50: > 79.4 µM (inactive)

## Cc1ccc2[nH]c(C)c(/C=C/c3cc[n+](C)cc3)c2c1
[26]
  IC50: 1.62 µM (active)
[27]
  IC50: 1.57 µM (active)
[28]
  EC50: 1.45 µM (active)
[29]
  EC50: 0.725 µM (active)
[30]
  EC50: > 30 µM (not active)
[31]
  EC50: > 150 µM (inactive)
